Experiment [1] has as its system iPSC-derived human brain microvascular endothelial cells. The experiment in a line: Inflamed Brain-Chip: endothelial morphology (ZO-1) and Dextran leakage after TNF-α in vascular channel. The format is cell-based. Here is the method:
In one embodiment to provide an innervated human brain chip having intact barrier function, induced pluripotent stem cells (iPSC)-derived cortical neurons, including populations of Glutamatergic neurons and GABAergic neurons, human primary astrocytes, and human primary pericytes were seeded into the neuronal channel (upper chamber), and iPSC-derived human brain microvascular endothelial cells in the vascular channel (lower chamber).
The vascular channel was directly stimulated the vascular channel at two concentrations of TNF-α.

For experiment [2], the system named is astrocytes. The experiment in a line: Brain-Chip GFAP expression after TNF-α perfused into neuronal channel. It counts as cell-based, human. The settings on record: TNF-α 100 ng/ml perfused into neuronal channel; up to 24 hours after stimulation. The protocol:
TNF-α (100 ng/ml) or vehicle was perfused into the neuronal channel.

The subject of experiment [3] is endothelial cells. Kind of experiment: Real-time TEER measurement in BBB-chip. The format is cell-based. Conditions: BBB-chip under flow, after TNF-a challenge. The source says: TEER measures the resistance to pass current across one or more cell layers on a membrane. Specifically, this electrical resistance is a direct measurement of the resistance of the cell monolayer to the transport of ions. The measurement may be affected by the pore size and density of the membrane, but it aims to ascertain cell and/or tissue properties. The TEER value is considered a good measure of the integrity of a cell monolayer.
The barrier function of the same BBB-chip measured by flowing a fluorescent molecule on one side of the chip and measuring how much of the molecules crosses the endothelial cells, FIG. 23B (middle). The resolution of this measurement is limited by the time it takes for a sufficient sample to flow through the chip. A model of an exemplary TEER-Chip design FIG. 23C (right) utilizing electrodes oriented in a manner that allows electrical resistance of the cells on the membrane to be measured in real-time.

The test system of experiment [4] is human iPS-derived sensory neurons (Nociceptors). Kind of experiment: Live calcium imaging (Fluo-4 AM) of Nociceptors on-chip after capsaicin irritation. It counts as cell-based. Conditions: capsaicin 1 μM, sensory neurons in apical channel. The protocol:
Irritation (as pain simulation) to sensory neurons on-chip was induced by capsaicin (1 μM in DMEM/F12 with 10% FBS, supplemented with BDNF, GDNF, NGF, NT-3 (25 ng/ml each) and Ascorbic Acid (200 μM)) in order to recapitulate the sensation of burning (heat) felt by humans exposed to capsaicin. Nociceptors responded to capsaicin, as shown by live imaging of calcium using Fluo-4 AM, see FIGS. 28C and 28D. Fluo-4 AM refers to a calcium sensitive fluorescent dye, loaded onto the sensory neurons. Intracellular calcium fluctuations were monitored over time using high-speed imaging. Acquisition protocols, for the example shown herein, consisted of 5-minute time-lapse sequences of Fluo-4 fluorescence. Alterations in fluorescence as a function of time were measured at a single wavelength (Fluo-4). Analysis and processing, as well as playback of the image sequences for visual inspection, was made using ImageJ/FIJI software. To visualize the spatial and temporal changes in, the raw sequences were processed to highlight changes in fluorescence intensity between frames. Regions of interest over the field of view were selected, and the mean pixel intensity at each frame was measured. The data was first plotted as fluorescence intensity versus and subsequently converted to a relative scale (ΔF/F baseline)

Experiment [5] shares this test system. Kind of experiment: Substance P release into apical channel effluent of Nociceptors-Chip. The format is cell-based. Here is the method: Chemical stimulation of Nociceptors with Capsaicin (e.g. 1 μM), perfused for 3 hours, was followed by effluent collected from the apical channel (neuronal). This Capsaicin treatment elicited the release of substance P, a pain neurotransmitter. […] This model was further developed, as described herein, successfully simulating the process of sensitization that leads to pathological pain by the addition of inflammatory mediators to endothelial media perfused through the vascular channel. As one example, 5 μM each of Prostaglandin E2, bradykinin, serotonin and histamine in Vascular Cell Basal Medium (ATCC® PCS-100-030™) with Microvascular Endothelial Cell Growth Kit-VEGF (ATCC® PCS-110-041™) was perfused through the vascular channel. In other words, this model is intended to simulate peripheral sensitization of Nociceptors. Capsaicin (200 nM) and inflammatory mediators (each 5 μM) were perfused for 3 hours, and the effluents were collected from the apical channel (neuronal). See, FIG. 30A for an exemplary schematic diagram. […] At the same time, inflammatory mediators, i.e. Prostaglandin E2, bradykinin, serotonin and histamine (each 5 μM in media), were added to the inlet of the basal channel. The effluent was collected from the outlet of the apical channel after 3 hours (t=3 h).

Experiment [6] has as its system Human Dermal Microvascular Endothelial Cells (HMVEC-D). Kind of experiment: Vascular permeability, 3 kDa Dextran leakage from basal into apical channel of Nociceptors-Chip. It counts as cell-based. The settings on record: capsaicin 200 nM apical, simultaneously with inflammatory mediators (each 5 μM) basal, 3 hours. The protocol:
In one embodiment, endothelial cells were seeded into the basal channel, e.g. Human Dermal Microvascular Endothelial Cells (HMVEC-D), i.e. Primary Dermal Microvascular Endothelial Cells; Normal, Human, Neonatal (HDMVECn) (e.g. ATCC® PCS-110-010™). However, it is not meant to limit the source of HMVEC, such that Primary Dermal Microvascular Endothelial Cells may be obtained from neonatal biopsies, e.g. foreskins. Prior to seeding, basal channels were coated with a thin rat collagen coating. Rat collagen was diluted in distillated water to obtain a final protein concentration at 150 μg/mL−1. The basal channel was coated by incubating the channel in collagen solution at 4° C. overnight. Unattached rat collagen was washed away with PBS, then culture medium was flowed in to cover the coated membrane to replace the PBS.
This model was further developed, as described herein, successfully simulating the process of sensitization that leads to pathological pain by the addition of inflammatory mediators to endothelial media perfused through the vascular channel. […]
Another readout is obtained by using Dextran (3 kDa) permeability, where Dextran is added to the basal channel then after 24 hours, effluent from the apical channel was collected for measuring the amount of Dextran that diffused through the endothelial barrier into the neuronal channel. […]

For the compound TNF-α, in experiment [1] (TNF-α 100 ng/ml and 1 ug/ml in vascular channel, 16 hours), the “Percent leakage of Dextran into the apical channel (paracellular permeability) vs control” value was “significantly higher”. Besides, in experiment [1] (TNF-α in vascular channel for 16 hours, 100 ng/ml and 1 ug/ml), the “Endothelial cell morphology (ZO-1 expression)” value was “induces changes”. Further, the “GFAP expression (optical intensity of GFAP staining)” value in experiment [2] is “significantly increases”. The “Barrier function by real-time TEER” value in experiment [3] was “abrupt drop”.
On to `COc1cc(CNC(=O)CCCC/C=C/C(C)C)ccc1O` [capsaicin, trans-8-methyl-N-vanillyl-6-nonenamide], for which, in experiment [4], the “Nociceptor response by live imaging of calcium, change in fluorescence (ΔF/F)” value was “responded”. Also, the “Substance P released in the apical channel effluent” value in experiment [5] (capsaicin 200 nM apical, with inflammatory mediators (Prostaglandin E2, bradykinin, serotonin, histamine, each 5 μM) basal, 3 hours) was “significant increase”; in experiment [5] (capsaicin 1 μM perfused through apical channel for 3 hours), “significant increase”. Further, the “Vascular permeability (leakage of 3 kDa Dextran into the apical channel)” value in experiment [6] was “significant increase”.

Source of the values: patent US20210054323A1, “INNERVATED INTESTINE ON CHIP” (EMULATE, Inc., priority 2018, published 2021).
